Test results published in patent US20230181746A1, “BENZOYLHYDRAZIDE-DERIVED HDAC DEGRADERS AS THERAPEUTICS FOR TREATING CANCER AND OTHER HUMAN DISEASES” (University of Florida Research Foundation, Inc., priority 2020, published 2023).

Assays:
[1] = target: HDAC2 (Homo sapiens, UniProt Q92769); experiment: In vitro HDAC activity assay (HDAC-Glo I/II), HDAC2; format: biochemical; parameters: purchased BPS Bioscience 50002; conditions: average of three independent assays ± standard deviation
Procedure: (§1) Purified HDAC1, HDAC2, and HDAC3 (in complex with the deacetylase activation domain of the human NCOR2 (amino acids 395-498)) were obtained from Enzo Life Sciences (HDAC1, catalog # BML-SE456-0050) and BPS Bioscience (HDAC2, catalog #50002 and HDAC3, catalog #50003), respectively. The enzyme activities were tested using the HDAC-Glo I/II reagents (Promega) according to a protocol provided by the manufacturer.

[2] = target: HDAC1 (Homo sapiens, UniProt Q13547); experiment: In vitro HDAC activity assay (HDAC-Glo I/II), HDAC1; format: biochemical; parameters: purchased Enzo Life Sciences BML-SE456-0050; conditions: average of three independent assays ± standard deviation
HDAC1, sequence (Q13547 whole entry): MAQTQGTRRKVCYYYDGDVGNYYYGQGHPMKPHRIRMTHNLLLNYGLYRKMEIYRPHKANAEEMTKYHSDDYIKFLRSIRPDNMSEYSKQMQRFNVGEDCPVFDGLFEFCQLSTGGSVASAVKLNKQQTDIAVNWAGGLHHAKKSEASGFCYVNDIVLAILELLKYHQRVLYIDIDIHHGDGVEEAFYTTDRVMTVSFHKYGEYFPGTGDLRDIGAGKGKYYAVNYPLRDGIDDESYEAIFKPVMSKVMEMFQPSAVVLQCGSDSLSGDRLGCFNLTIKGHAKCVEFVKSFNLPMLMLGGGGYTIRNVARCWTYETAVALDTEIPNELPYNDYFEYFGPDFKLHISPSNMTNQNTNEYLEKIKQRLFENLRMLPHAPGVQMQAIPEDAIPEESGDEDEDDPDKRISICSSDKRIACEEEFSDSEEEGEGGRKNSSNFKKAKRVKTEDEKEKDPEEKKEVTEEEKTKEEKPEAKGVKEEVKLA
Procedure: as §1

[3] = target: T1, HDAC3 (in complex with the deacetylase activation domain of the human NCOR2 (amino acids 395-498)) (Homo sapiens, UniProt O15379); experiment: In vitro HDAC activity assay (HDAC-Glo I/II), HDAC3; format: biochemical; conditions: HDAC-Glo I/II; average of three independent assays ± standard deviation
T1 construct: purchased BPS Bioscience 50003
T1 sequence (O15379 whole entry, the tested form may be a part): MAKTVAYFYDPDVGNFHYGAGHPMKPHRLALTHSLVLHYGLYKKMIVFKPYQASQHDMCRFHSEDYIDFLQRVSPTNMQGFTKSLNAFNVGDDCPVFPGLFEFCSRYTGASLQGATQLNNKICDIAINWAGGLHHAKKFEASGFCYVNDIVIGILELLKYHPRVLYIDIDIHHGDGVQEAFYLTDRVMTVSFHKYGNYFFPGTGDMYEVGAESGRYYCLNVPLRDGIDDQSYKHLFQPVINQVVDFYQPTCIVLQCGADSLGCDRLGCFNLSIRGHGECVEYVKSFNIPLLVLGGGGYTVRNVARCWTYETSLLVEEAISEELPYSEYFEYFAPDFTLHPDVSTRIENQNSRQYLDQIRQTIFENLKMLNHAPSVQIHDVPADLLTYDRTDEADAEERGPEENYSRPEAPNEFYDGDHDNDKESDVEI
T1 sequence (Q9Y618 395-498 partner limits assumed): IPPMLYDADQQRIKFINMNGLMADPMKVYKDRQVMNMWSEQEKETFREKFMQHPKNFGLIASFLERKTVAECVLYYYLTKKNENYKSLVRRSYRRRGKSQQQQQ
Procedure: as §1

[4] = target: HDAC3 (Homo sapiens, UniProt O15379); experiment: HDAC3 degradation in breast cancer cell lines, Western blot; format: cell-based; parameters: endogenous in cells; host or cells: MDA-MB-468, T47D, MCF7; conditions: for DC50: T47D cells, read-out: DC50, HDAC3 degradation potency
HDAC3, sequence (O15379 whole entry): as the sequence (O15379 whole entry, the tested form may be a part) above
HDAC3, sequence (Q9Y618 395-498 partner limits assumed): as the sequence (Q9Y618 395-498 partner limits assumed) above
Text: Data are presented as representative figures of two independent experiments.
Cells were lysed for WB with antibodies against the indicated proteins. Antibodies against acetylated histones at specific sites (H3K27 and H4K5) and acetyl-lysine were used to assess levels of histone acetylation.
Cells were lysed for WB. […] The indicated BC cell lines were exposed to DMSO, XZ9002, or XZ9002-NC at the indicated concentrations. Colonies were fixed and stained.
Cell lines were obtained from ATCC and subsequently authenticated. Cells were cultured with DMEM supplemented with 10% bovine calf serum, penicillin to 10 units/mL, and streptomycin to 10 μg/mL. For viability assays, 5,000 cells/well were seeded in 96-well plates. […] For colony formation assay, cells (˜1,000 cells/well) were seeded in a 24-well plate in quadruplicates. […] Medium was replaced with freshly prepared medium containing DMSO, XZ9002 or XZ9002-NC every five days until visible colonies appeared, typically in 15 to 20 days after initial cell seeding. Cells were fixed with 4% paraformaldehyde for 15 min and stained with 2% methylene blue in 20% ethanol for 30 min to 1 h. The cells were washed twice with distilled water and dried in air. For western blotting, cell cultures were exposed to compounds as indicated in relevant figures. Medium was removed from culture plate, and 1 x passive lysis buffer was then added, the plates were frozen at −80° C. overnight and thawed at room temperature. The total cell lysates were mixed with a one fifth volume of 6x SDS sample buffer, heated at 95° C. for 5 min and cooled on ice. The lysates were cleared by centrifugation and then subjected to SDS-PAGE and western blotting essentially as described.

HDAC2, sequence (Q92769 whole entry, the tested form may be a part): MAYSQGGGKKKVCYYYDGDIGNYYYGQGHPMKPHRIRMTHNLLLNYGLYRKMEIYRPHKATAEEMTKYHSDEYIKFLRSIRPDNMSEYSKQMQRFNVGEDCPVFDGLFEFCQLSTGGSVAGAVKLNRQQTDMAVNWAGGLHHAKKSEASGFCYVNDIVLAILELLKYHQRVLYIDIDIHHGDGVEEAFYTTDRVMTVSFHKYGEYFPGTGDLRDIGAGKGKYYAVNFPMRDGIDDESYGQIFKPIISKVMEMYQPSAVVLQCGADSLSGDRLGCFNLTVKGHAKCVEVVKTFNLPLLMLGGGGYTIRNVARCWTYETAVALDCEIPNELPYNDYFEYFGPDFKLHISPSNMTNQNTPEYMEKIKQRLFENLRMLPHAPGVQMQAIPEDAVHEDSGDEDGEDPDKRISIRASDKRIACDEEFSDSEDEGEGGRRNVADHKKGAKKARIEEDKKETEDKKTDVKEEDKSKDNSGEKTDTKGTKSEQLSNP

| IC50 [1] [nM] | IC50 [2] [nM] | IC50 [3] [nM] | DC50 [4] [nM] | SMILES | further results |
| --- | --- | --- | --- | --- | --- |
|  |  |  | < 100 | CCCNNC(=O)c1ccc(N2CCN(CCCCCC(=O)N[C@H](C(=O)N3C[C@H](O)C[C@H]3C(=O)N[C@@H](C)c3ccc(-c4scnc4C)cc3)C(C)(C)C)CC2)cc1 [Compound 28a, (2S,4R)-1-((S)-3,3-dimethyl-2-(6-(4-(4-(2-propylhydrazine-1-carbonyl)phenyl)piperazin-1-yl)hexanamido)butanoyl)-4-hydroxy-N—((S)-1-(4-(4-methylthiazol-5-yl)phenyl)ethyl)pyrrolidine-2-carboxamide] |  |
|  |  |  | < 100 | CCCNNC(=O)c1ccc(N2CCN(CCCCCCC(=O)N[C@H](C(=O)N3C[C@H](O)C[C@H]3C(=O)N[C@@H](C)c3ccc(-c4scnc4C)cc3)C(C)(C)C)CC2)cc1 [Compound 28b, (2S,4R)-1-((S)-3,3-dimethyl-2-(7-(4-(4-(2-propylhydrazine-1-carbonyl)phenyl)piperazin-1-yl)heptanamido)butanoyl)-4-hydroxy-N—((S)-1-(4-(4-methylthiazol-5-yl)phenyl)ethyl)pyrrolidine-2-carboxamide] |  |
|  |  |  | < 100 | CCCNNC(=O)c1ccc(N2CCN(CCCCCCCCC(=O)N[C@H](C(=O)N3C[C@H](O)C[C@H]3C(=O)N[C@@H](C)c3ccc(-c4scnc4C)cc3)C(C)(C)C)CC2)cc1 [Compound 28d, (2S,4R)-1-((S)-3,3-dimethyl-2-(9-(4-(4-(2-propylhydrazine-1-carbonyl)phenyl)piperazin-1-yl)nonanamido)butanoyl)-4-hydroxy-N—((S)-1-(4-(4-methylthiazol-5-yl)phenyl)ethyl)pyrrolidine-2-carboxamide] |  |
|  |  |  | < 1000 | CCCNNC(=O)c1ccc(N2CCN(CCCCCCCCCC(=O)N[C@H](C(=O)N3C[C@H](O)C[C@H]3C(=O)N[C@@H](C)c3ccc(-c4scnc4C)cc3)C(C)(C)C)CC2)cc1 [Compound 28e, (2S,4R)-1-((S)-3,3-dimethyl-2-(10-(4-(4-(2-propylhydrazine-1-carbonyl)phenyl)piperazin-1-yl)decanamido)butanoyl)-4-hydroxy-N—((S)-1-(4-(4-methylthiazol-5-yl)phenyl)ethyl)pyrrolidine-2-carboxamide] |  |

More lines, now with the values behind:

| SMILES | IC50 [1] [nM] | IC50 [2] [nM] | IC50 [3] [nM] | DC50 [4] [nM] | further results |
| --- | --- | --- | --- | --- | --- |
| CCCNNC(=O)c1ccc(-c2ccc(NC(=O)COCCOCCNc3cccc4c3C(=O)N(C3CCC(=O)NC3=O)C4=O)cc2)cc1 (stereo not drawn) [Compound 7a] | 410 ± 14 | 82 ± 25 | 43 ± 18 |  |  |
| CCCNNC(=O)c1ccc(-c2ccc(NC(=O)COCCOCCOCCNc3cccc4c3C(=O)N(C3CCC(=O)NC3=O)C4=O)cc2)cc1 (stereo not drawn) [Compound 7b, 2-(2-(2-(2-((2-(2,6-dioxopiperidin-3-yl)-1,3-dioxoisoindolin-4-yl)amino)ethoxy)ethoxy)ethoxy)-N-(4′-(20propylhydrazine-1-carbonyl)[1,1′-biphenyl]-4-yl)acetamide] | 400 ± 30 | 90 ± 14 | 38 ± 23 |  |  |
| CCCNNC(=O)c1ccc(-c2ccc(NC(=O)COCCOCCOCCOCCNc3cccc4c3C(=O)N(C3CCC(=O)NC3=O)C4=O)cc2)cc1 (stereo not drawn) [Compound 7c, 14-((2-(2,6-dioxopiperidin-3-yl)-1,3-dioxoisoindolin-4-yl)amino)-N-(4′-(2-propylhydrazine-1-carbonyl)-[1,1′-biphenyl]-4-yl)-3,6,9,12-tetraoxatetradecanamide] | 450 ± 70 | 125 ± 35 | 72 ± 15 |  | concentration at which HDAC3 is degraded ([4]; PROTACs derived from CRBN, breast cancer cell lines): 1.0 µM |
| CCCNNC(=O)c1ccc(-c2ccc(NC(=O)CCC(=O)N[C@H](C(=O)N3C[C@H](O)C[C@H]3C(=O)N[C@@H](C)c3ccc(-c4scnc4C)cc3)C(C)(C)C)cc2)cc1 [Compound 8a, N^1—((S)-1-((2S,4R)-4-hydroxy-2-(((S)-1-(4-(4-methylthiazol-5-yl)phenyl)ethyl)carbamoyl)pyrrolidine-1-yl)-3,3-dimethyl-1-oxobutan-2-yl)-N^4-(4′-(2-propylhydrazine-1-carbonyl)-[1,1′-biphenyl]-4-yl)succinimide] | 1400 ± 140 | 300 ± 70 | 140 ± 40 |  |  |
| CCCNNC(=O)c1ccc(-c2ccc(NC(=O)CCCCCCCCC(=O)N[C@H](C(=O)N3C[C@H](O)C[C@H]3C(=O)N[C@@H](C)c3ccc(-c4scnc4C)cc3)C(C)(C)C)cc2)cc1 [Compound 8d, N^1—((S)-1-((2S,4R)-4-Hydroxy-2-(((S)-1-(4-(4-methylthiazol-5-yl)phenyl)ethyl)carbamoyl)pyrrolidin-1-yl)-3,3-dimethyl-1-oxobutan-2-yl)-N^10-(4′-(2-propylhydrazine-1-carbonyl)-[1,1′-biphenyl]-4-yl)decanediamide] | 1420 ± 250 | 1500 ± 140 | 550 ± 70 |  |  |
| CCCNNC(=O)c1ccc(N2CCN(C(=O)CCCCC(=O)N[C@H](C(=O)N3C[C@H](O)C[C@H]3C(=O)N[C@@H](C)c3ccc(-c4scnc4C)cc3)C(C)(C)C)CC2)cc1 [Compound 27a, (2S,4R)-1-((S)-3,3-dimethyl-2-(6-oxo-6-(4-(4-(2-propylhydrazine-1-carbonyl)phenyl)piperazin-1-yl)hexanamido)butanoyl)-4-hydroxy-N—((S)-1-(4-(4-methylthiazol-5-yl)phenyl)ethyl)pyrrolidine-2-carboxamide] |  |  |  | < 1000 |  |
| CCCNNC(=O)c1ccc(N2CCN(C(=O)CCCCCCC(=O)N[C@H](C(=O)N3C[C@H](O)C[C@H]3C(=O)N[C@@H](C)c3ccc(-c4scnc4C)cc3)C(C)(C)C)CC2)cc1 [Compound 27b, (2S,4R)-1-((S)-3,3-dimethyl-2-(8-oxo-8-(4-(4-(2-propylhydrazine-1-carbonyl)phenyl)piperazin-1-yl)octanamido)butanoyl)-4-hydroxy-N—((S)-1-(4-(4-methylthiazol-5-yl)phenyl)ethyl)pyrrolidine-2-carboxamide] |  |  |  | < 100 |  |
| CCCNNC(=O)c1ccc(N2CCN(C(=O)CCCCCCCCC(=O)N[C@H](C(=O)N3C[C@H](O)C[C@H]3C(=O)N[C@@H](C)c3ccc(-c4scnc4C)cc3)C(C)(C)C)CC2)cc1 [Compound 27c, (2S,4R)-1-((S)-3,3-dimethyl-2-(10-oxo-10-(4-(4-(2-propylhydrazine-1-carbonyl)phenyl)piperazin-1-yl)decanamido)butanoyl)-4-hydroxy-N—((S)-1-(4-(4-methylthiazol-5-yl)phenyl)ethyl)pyrrolidine-2-carboxamide] |  |  |  | < 100 |  |
| CCCNNC(=O)c1ccc(-c2ccc(NC(=O)CCCCCCC(=O)N[C@H](C(=O)N3C[C@@H](O)C[C@@H]3C(=O)N[C@@H](C)c3ccc(-c4scnc4C)cc3)C(C)(C)C)cc2)cc1 [XZ9002-NC, N^1—((S)-1-((2R,4S)-4-Hydroxy-2-(((S)-1-(4-(4-methylthiazol-5-yl)phenyl)ethyl)carbamoyl)pyrrolidin-1-yl)-3,3-dimethyl-1-oxobutan-2-yl)-N^5-(4′-(2-propylhydrazine-1-carbonyl)-[1,1′-biphenyl]-4-yl)octanediamide] |  |  |  |  | HDAC3 degradation (in words) ([4]; MDA-MB-468 cells (FIG. 3B)): did not induce HDAC3 degradation |
